Results: patent publication US7544467B2, “Method for the identification of compounds capable of activating latent human immunodeficiency virus (HIV)” (The J. David Gladstone Institutes, priority 2001, dated 2009)

Experiments:
[1] = tested on: latent HIV-based retroviral vector in cell line; assay: Screen of small molecule library on cell line containing a latent HIV-based retroviral vector, GFP expression; details: different concentrations; FIG. 7
From the text: We screened a library of 6,000 small molecules (library purchased from Chembridge, San Diego) using one of the cell lines containing a latent HIV-based retroviral vector. Viral expression was monitored by GFP expression, as described above. […] The results of a typical induction experiment in which we measured CFP expression in response to different concentrations of the two small molecules (Hit 1 and Hit2) are shown in FIG. 7. The structures of three representative active agents are shown below.

[2] = tested on: latent HIV promoter (LTR-Tat-IRES-GFP vector) in Jurkat-derived cells; assay: Reactivation of latent LTR-Tat-IRES-GFP vector in Jurkat cells/clones, GFP by flow cytometry; type: cell-based; details: for ability to reactivate latent HIV expression (GFP-positive cells and mean fluorescence intensity): clones 82, A1, A7, A10, 10 nM TPA, 10 ng/ml TNF-α, 5 μg/ml PHA, 5 μg/ml anti-CD3, 400 nM TSA, 5 μM aza-dC 48 h
Procedure: To obtain a random library of clones containing the vector LTR-Tat-IRES-GFP integrated, Jurkat cells were infected at an MOI (multiplicity of infection) of 0.1 followed by serial dilution and plating in 96-well plates. Individual clones obtained after 3 weeks were analyzed by flow cytometry for GFP expression. For the purification of latently infected cells, Jurkat cells were infected with the LTR-Tat-IRES-GFP viral stock at an MOI of 0.1 and kept in culture for at least 96 h. GFP-negative (GFP^−) and GFP-positive (GFP^+) cells were separated by fluorescence activated cell sorting (FACS) and further cultured. One week later, GFP^− cells were incubated with 10 nM TPA or 10 ng/ml TNF-α for 17 h.
Jurkat cells were grown in RPMI 1640 medium (Mediatech Cellgro, Herndon, Va.) supplemented with 10% fetal bovine serum, 100 U/ml of penicillin, 100 μg/ml of streptomycin, and 2 mM L-glutamine at 37° C. under a 95% air/5% CO2 atmosphere. Peripheral blood mononuclear cells (PBMCs) were cultivated in the same medium supplemented with 100 U/ml human interleukin (hIL)-2 and were phytohemagglutinin (PHA)-stimulated (5 μg/ml) once every two weeks. 293T cells were grown under the same conditions as Jurkat cells in Dulbecco's modification of Eagle's medium (Mediatech Cellgro, Herndon, Va.). 293T cells were routinely transfected with calcium phosphate. Jurkat cells (10^7 cells/0.4 ml serum-free medium) were electroporated in 0.4-cm gap cuvettes at 250 V and […] (Gene Pulser II, Biorad, Hercules, Calif.). Plasmid DNA for transfections was purified with the Qiagen Plasmid Maxi kit, followed by phenol extraction and ethanol precipitation. To test the HIV promoter inducibility, Jurkat-derived clones were incubated for 17 h with 10 nM tetradecanoyl phorbol acetate (TPA), 10 ng/ml TNF-α, 5 μg/ml PHA, 1 μM ionomycin, 5 μg/ml anti-CD3 antibody, 400 nM Trichostatin A (TSA). Incubations with 5 μM aza-dC lasted for 48 h.
(§1) Cells were washed in PBS and resuspended in PBS containing 1% paraformaldehyde. GFP fluorescence was measured with a FACScalibur machine (Becton Dickinson, San Jose, Calif.). A two narameter analysis to distinguish GFP-derived fluorescence from background fluorescence was used: CFP was measured in FL1 and cellular autofluorescence was monitored in FL2. Electronic compensation was applied during analysis. Analysis was gated on live cells according to forward and side scatter. A gate (R2) containing GFP-positive cells was drawn compared to an uninfected control, and the data shown refer to the percentage of cells in R2 or mean fluorescence intensity (MFI) of those cells. Results shown throughout the manuscript are representative three independent experiments, except when libraries of clones were analyzed. Cell sorting was carried out with a FACSVantage (Becton Dickinson, San Jose, Calif.).

[3] = tested on: latent full-length HIV provirus (HIV-R7/E-/GFP) in Jurkat clones; assay: HIV-specific p24 in culture supernatants of latent HIV-R7/E-/GFP clones; type: cell-based; details: culture supernatant; for p24 (pg/ml): + TNF-α
From the text: When the culture supernatants of the same clones were examined for HIV-specific p24 expression, no or low picogram amounts could be detected under basal conditions (Table I).

[4] = tested on: HIV transcription in latent cell lines; assay: HIV-specific mRNA measurement by TaqMan PCR in latent cell lines; type: cell-based; details: clone H2; +TNF-α
Procedure: RNA was isolated using TRIzol (Invitrogen) followed by digestion with RQ1 DNase (Promega). First strand cDNA was synthesized using Superscript II (Invitrogen). Taqman PCR was performed on an ABIprism 7700 detector using the following primer/probe set: primer 1: 5′-[…]-3′ (SEQ ID NO:21); primer 2: 5′-[…]-3′ (SEQ ID NO:22); probe 5′-CTGGTAACTAGAGATCCC-3′ (SEQ LD NO:23). The GAPDH primer/probe set was purchased from Applied Biosystems.
FIG. 1A-C. Enrichment and purification of HIV-latently infected cells by FACS. (A) A schematic representation of our enrichment protocol is shown. See text for details. The percentage of GFP-positive cells obtained after infection (4%) or after TNF-α treatment of GFP-cells (0.06%) is shown. Similar data were obtained with TPA. (B) Clonal cell lines isolated using the procedure described above were analyzed for CFP expression under basal and stimulated conditions (24 hr treatment with TNF-α). (C) mRNA levels were measured for HIV and for GAPDH using TaqMan PCR in untreated and TNF-α-treated cell lines. Results are expressed as a percentage of mRNA levels measured in Jurkat cells acutely infected with HIVNL4-3 (day 6 post-infection). Clone A72 is infected with an LTR-CFP construct (Jordan et al. (2001, supra), clone H2 is infected with the LTR-Tat-IRS-GFP vector while clones F11 and G10 are infected with HIV-R7/E^−/GFP.

[5] = tested on: latent full-length HIV provirus (HIV-R7/E-/GFP) in Jurkat cells; assay: GFP expression in Jurkat cells/clones latently infected with full-length HIV-R7/E-/GFP, flow cytometry; type: cell-based; details: for GFP Signal (MFI) / GFP-Positive (%): + TNF-α
Procedure: as §1
The HIV molecular clone (HIV-R7/E^−1/GFP) was constructed by introducing a frameshift mutation in the env gene (by filling-in NdeI site with T4 polymerase) in the backbone of HIV-R7/3/GCF. Bieniasz and Cullen (2000) J. Virol. 74:9868-9877.
To confirm that HIV Latency can be established in the context of a full length provirus, we used a recombinant HIV molecular clone containing the GFP open reading frame in place of the Nef gene (Bieniasz and Cullen (2000) J. Virol. 74:9868-9877) (HIV-R7/E^−/GFP) (FIG. 5A). To restrict our analysis to a single infection cycle, the env gene was suppressed by introduction of a frameshift mutation. […]. We infected a culture of the lymphocytic cell line Jurkat with viral particles containing this HIV genome and used differential fluorescence-activated cell sorting based on GFP expression to isolate GFP-negative cells by FACS 4 days after infection (FIG. 5B). Based on our previous experiments, we predicted that this population harbored both uninfected cells and cells with transcriptionally silenced proviruses. To activate HIV expression, we treated this population with TNF-α and observed that a small fraction of the cell population (1.9%) became positive. These activated cells were purified by FACS based on GFP expression levels (FIG. 5B). These cells were both grown as a group and individually sorted for further characterization.
FIG. 5. Establishment of latently infected cell lines with a full-length HIV provirus. (A) genome organization of a molecular clone of HIV encoding GFP and containing a frameshift mutation in env. (B) Schematic representation of protocol for enrichment of latently-infected cells after infection of Jurkat cells with HIV-R7/E^−/GFP) (see text for detail). (C) Clonal cell lines isolated using the procedure described above were analyzed for GFP expression under basal and stimulated conditions (24 hr treatment with TNF-α).

[6] = tested on: latent full-length HIV provirus (HIV-R7/E-/GFP) in Jurkat clones; assay: Western blotting of HIV-specific proteins in latent HIV-R7/E-/GFP clones; type: cell-based; details: several clones; particularly gag p55 precursor
From the text: Levels of viral mRNA after activation were similar to those measured after a productive HIV infection (compare clones F11 and G10 with NL4-3, FIG. 1C).

For `CC1(C)Cc2ccccc2C(NNC(=O)c2ccccn2)=N1` [Hit2], the “induction of HIV expression as measured by increased GFP expression” value [1] was “reproducibly lead to an induction of HIV expression”.

For `COc1cc(/C=N/NC(=O)c2cc(-c3ccccc3)n[nH]2)cc(OC)c1O` [Hit 1], the “induction of HIV expression as measured by increased GFP expression” value [1] was “reproducibly lead to an induction of HIV expression”.

In the case of `CC(/C=C/C(=O)NO)=C\[C@@H](C)C(=O)c1ccc(N(C)C)cc1` [Trichostatin A], the “ability to reactivate latent HIV expression (GFP-positive cells and mean fluorescence intensity)” value (shortened to “ability”) [2] was “activated expression but to a lesser extent than NT-κB activators and in only some cell lines”.

In the case of `Nc1ncn([C@H]2C[C@H](O)[C@@H](CO)O2)c(=O)n1` [aza-dC, 5-axa-2-deoxycytidine], the “ability” value [2] was “little effect”.

With phytohemagglutinin [PHA] the “ability” value [2] was “induced HIV expression”.

tetradecanoyl phorbol acetate [TPA] was tested, and the “GFP expression of individual latent clones after treatment” value ([2]; clonal cell lines 4 weeks after isolation) was “all clones were activated” and the “ability” value [2] was “strongest inducer tested”.

tumor necrosis factor alpha [TNF-α] was tested, and the “ability” value [2] was “induced HIV expression”, the “p24 (pg/ml)” value ([3]; Clone 6.3) was 10,100 ± 4,573 pg/ml and the “p24 (pg/ml)” value ([3]; Clone 8.4) was 32,967 ± 10,537 pg/ml. The “p24 (pg/ml)” value ([3]; Clone 9.2) was 41,067 ± 9,100 pg/ml, the “p24 (pg/ml)” value ([3]; Clone 10.6) was 85,500 ± 5,981 pg/ml and the “p24 (pg/ml)” value ([3]; Clone 15.4) was 6,066 ± 1,960 pg/ml. For the same molecule, the “increase in p24 measurement versus basal conditions” value ([3]; several representative clones) was “greater than a thousand-fold increase”, the “HIV mRNA levels, activated versus basal conditions” value [4] was “activation of HIV transcription” and the “GFP Signal (MFI)” value ([5]; Clone 6.3) was 135 ± 43 MFI. The “GFP-Positive (%)” value ([5]; Clone 6.3) was 27 ± 9%, the “GFP Signal (MFI)” value ([5]; Clone 8.4) was 488 ± 74 MFI and the “GFP-Positive (%)” value ([5]; Clone 8.4) was 77 ± 6%. The “GFP Signal (MFI)” value ([5]; Clone 9.2) was 522 ± 61 MFI, the “GFP-Positive (%)” value ([5]; Clone 9.2) was 75 ± 7% and the “GFP Signal (MFI)” value ([5]; Clone 10.6) was 645 ± 45 MFI. The “GFP-Positive (%)” value ([5]; Clone 10.6) was 96 ± 1%, the “GFP Signal (MFI)” value ([5]; Clone 15.4) was 188 ± 34 MFI and the “GFP-Positive (%)” value ([5]; Clone 15.4) was 46 ± 6%. The “fraction of the cell population that became GFP positive” value ([5]; Jurkat infected with HIV-R7/E-/GFP, sorted GFP-negative population) was 1.9%, the “HIV expression (fraction of GFP positive cells and mean fluorescence intensity) in individual clones” value ([5]; individual HIV-R7/E-/GFP clones) was “HIV expression was increased in all clones” and the “HIV protein expression by western blotting” value [6] was “dramatic increase in HIV protein expression”.
